Measurements taken from the NIST ThermoML archive (doi:10.1016/j.jct.2017.05.010).
± gives the expanded uncertainty stated by the source.

Details: 101.33 kPa, Liquid, Single path-length method

CCCCOCCCN [3-butoxy-1-propanamine]
speed of sound (283.15 K): 1387.3 ± 1.7 m/s | speed of sound (288.15 K): 1367.3 ± 1.7 m/s | speed of sound (293.15 K): 1346.7 ± 1.7 m/s | speed of sound (298.15 K): 1326.4 ± 1.7 m/s | speed of sound (303.15 K): 1306.7 ± 1.7 m/s
